Test results taken from patent publication US9718790B2, “Triazine derivative and pharmaceutical composition having an analgesic activity comprising the same” (SHIONOGI & CO., LTD., priority 2010, dated 2017).

Biological target: human P2X3 receptor (Homo sapiens (Human), UniProt P56373)
Experiment: Evaluation of human P2X3 receptor inhibitory activity (Fluo-3 calcium fluorescence, FDSS 3000, ATP stimulation);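 further: stimulus was 50 nM ATP with fluorescence followed for 3 min, and the response per well was peak post-ATP fluorescence divided by the reading at measurement start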
Format: cell-based
[1] = human P2X3 receptor, Test Example 1
[2] = C6BU-1 cells stably expressing human P2X3 receptor, Fluo-3 fluorescence, FDSS 3000
[3] = C6BU-1 cells stably expressing human P2X3 receptor

human P2X3 receptor, sequence (P56373 whole entry): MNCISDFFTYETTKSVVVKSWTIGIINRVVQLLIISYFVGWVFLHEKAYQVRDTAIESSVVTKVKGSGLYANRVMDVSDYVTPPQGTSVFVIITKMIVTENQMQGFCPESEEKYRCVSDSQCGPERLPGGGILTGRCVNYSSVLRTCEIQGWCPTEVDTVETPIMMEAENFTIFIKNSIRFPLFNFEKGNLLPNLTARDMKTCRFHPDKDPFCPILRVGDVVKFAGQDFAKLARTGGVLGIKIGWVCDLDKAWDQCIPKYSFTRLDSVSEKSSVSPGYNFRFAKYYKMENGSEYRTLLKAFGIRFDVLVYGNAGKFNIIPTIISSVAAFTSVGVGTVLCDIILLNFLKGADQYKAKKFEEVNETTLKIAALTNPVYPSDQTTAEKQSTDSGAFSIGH

CCn1c(=O)[nH]/c(=N\c2ccc(Oc3cccc(C#N)n3)c(F)c2)n(Cc2ccc(Cl)cc2)c1=O [Compound I-2492]
IC50 [1]: 4 nM

COC(=O)/C=C/c1cccc(Oc2ccc(/N=c3\[nH]c(=O)n(C)c(=O)n3Cc3ccc(Cl)cc3)cc2)c1 [Compound I-2329]
IC50 [1]: 70 nM

NC(=O)Cn1c(=O)[nH]/c(=N\c2ccc(Oc3cccnn3)cc2)n(Cc2ccc(Cl)cc2)c1=O [Compound I-2689]
IC50 [1]: 20 nM

CCC[C@@H](C)Oc1ccc(/N=c2\[nH]c(=O)n(C[C@H](C)C(=O)OC)c(=O)n2Cc2ccc(C)cc2)cc1 [Compound I-1047]
IC50 [2]: 154 nM

Cc1cc2cc(/N=c3\[nH]c(=O)n(CCCOC4CCCCO4)c(=O)n3Cc3ccc(Cl)cc3)ccc2o1 (centres unmarked) [Compound I-2025]
IC50 [3]: 5 nM

CC(C)Cc1ccc(/N=c2\[nH]c(=O)n(C[C@H](C)C(=O)O)c(=O)n2Cc2ccc(Cl)cn2)cc1Cl [Compound I-1540]
IC50 [1]: 52 nM

CCn1c(=O)[nH]/c(=N\c2ccc(Oc3ccnc(O)n3)cc2)n(Cc2ccc(Cl)cc2)c1=O [Compound I-2016]
IC50 [3]: 5 nM

CC(C)Oc1ccc(/N=c2\[nH]c(=O)n(C[C@H](C)C(=O)O)c(=O)n2Cc2ccc(Cl)cc2)cc1C#N [Compound I-0960]
IC50 [2]: 70 nM

CCn1c(=O)[nH]/c(=N\c2ccc(Oc3nccc(O)n3)cc2)n(Cc2ccc(Cl)cc2)c1=O [Compound I-2108]
IC50 [3]: 26 nM

CCn1c(=O)[nH]/c(=N\c2ccc(Oc3ccc(O)nc3)cc2)n(Cc2ccc(Cl)cc2)c1=O [Compound I-1848]
IC50 [2]: 14 nM

Cc1ccc(Cn2c(=O)n(C)c(=O)[nH]/c2=N\c2ccc(Oc3ccc(C#N)cn3)cc2)cc1 [Compound I-2393]
IC50 [1]: 10 nM

COC(=O)[C@@H](C)Cn1c(=O)[nH]/c(=N\c2ccc(OC)c(Cl)c2)n(Cc2ccc(Cl)cc2)c1=O [Compound I-0702]
IC50 [3]: 107 nM

Cc1oc2ccc(/N=c3\[nH]c(=O)n(CCCOC4CCCCO4)c(=O)n3Cc3ccc(Cl)cc3)cc2c1C (centres unmarked) [Compound I-2073]
IC50 [3]: 10 nM

CCCOc1ccc(/N=c2\[nH]c(=O)n(C[C@@H](CC)C(=O)O)c(=O)n2Cc2ccc(Cl)cc2)cc1 [Compound I-1039]
IC50 [2]: 83 nM

CCn1c(=O)[nH]/c(=N\c2ccc(Oc3ccc(C)c(C(=O)O)c3)cc2)n(Cc2ccc(Cl)cc2)c1=O [Compound I-2017]
IC50 [3]: 41 nM

CCn1c(=O)[nH]/c(=N\c2ccc(Oc3cncc(OC)n3)cc2)n(Cc2ccc(Cl)cc2)c1=O [Compound I-2125]
IC50 [3]: 7 nM

Cc1ccc(Cn2c(=O)n(CCC(=O)O)c(=O)[nH]/c2=N\c2ccc(Oc3cccnc3)cc2)cc1 [Compound I-1227]
IC50 [3]: 30 nM

CC(C)Oc1ccc(/N=c2\[nH]c(=O)n(CCNCCO)c(=O)n2Cc2ccc(Cl)cc2)cc1F [Compound I-2122]
IC50 [3]: 93 nM

Cn1c(=O)[nH]/c(=N\c2ccc(Oc3cncc(C(=O)O)n3)cc2)n(Cc2ccc(Cl)cc2)c1=O [Compound I-2476]
IC50 [1]: 13 nM

C/C=C\c1ccc(Cn2c(=O)n(C[C@H](C)C(=O)OC)c(=O)[nH]/c2=N\c2ccc(OC(C)C)cc2)cc1 [Compound I-1142]
IC50 [2]: 802 nM

Cc1ccc(Cn2c(=O)n(C)c(=O)[nH]/c2=N\c2ccc(Oc3ccc(C(N)=O)cn3)cc2)cc1 [Compound I-2464]
IC50 [1]: 10 nM

CC(C)NC(=O)c1ccc(/N=c2\[nH]c(=O)n(C[C@H](C)C(=O)O)c(=O)n2Cc2ccc(Cl)cc2)cc1Cl [Compound I-1414]
IC50 [3]: 986 nM

O=c1[nH]/c(=N\c2ccc(Oc3cccc(F)n3)cc2)n(Cc2ccc(Cl)cc2)c(=O)n1C[C@H](O)CO [Compound I-2436]
IC50 [1]: 4 nM

CCOC(=O)CNc1cc(Oc2ccc(/N=c3\[nH]c(=O)n(CC)c(=O)n3Cc3ccc(Cl)cc3)cc2)ccn1 [Compound I-2549]
IC50 [1]: 12 nM

CC[C@H](C)Oc1ccc(/N=c2\[nH]c(=O)n(C[C@H](C)C(=O)OC)c(=O)n2Cc2ccc(C)cc2)cc1Cl [Compound I-1016]
IC50 [2]: 17 nM

COC(=O)CCn1c(=O)[nH]/c(=N\C2CCC(C)CC2)n(Cc2ccc(C)cc2)c1=O (centres unmarked) [Compound I-1759]
IC50 [2]: 408 nM

COC(=O)C(C)(C)Cn1c(=O)[nH]/c(=N\c2ccc3c(c2)cc(C)n3C)n(Cc2ccc(Cl)cc2)c1=O [Compound I-0597]
IC50 [3]: 507 nM

Cn1c(=O)[nH]/c(=N\c2ccc(Oc3ccc(C#N)cn3)cc2)n(Cc2ccc(Cl)cc2)c1=O [Compound I-2392]
IC50 [1]: 11 nM

CC1(C)OCC(Cn2c(=O)[nH]/c(=N\c3ccc(OC4CCC4)cc3)n(Cc3ccc(Cl)cc3)c2=O)CO1 [Compound I-1965]
IC50 [3]: 3 nM

O=C(O)CCn1c(=O)[nH]/c(=N\c2ccc(Oc3ncns3)cc2)n(Cc2ccc(Cl)cc2)c1=O [Compound I-2698]
IC50 [1]: 25 nM

CCn1c(=O)[nH]/c(=N\c2ccc(Oc3cncc(C(=O)O)c3)cc2)n(C[C@H]2CC[C@H](C)CC2)c1=O [Compound I-2352]
IC50 [1]: 6 nM

C=Cc1ccc(Cn2c(=O)n(C[C@H](C)C(=O)O)c(=O)[nH]/c2=N\c2ccc(OC(C)C)cc2)cc1 [Compound I-1139]
IC50 [2]: 52 nM

CC(C)Cc1ccc(/N=c2\[nH]c(=O)n([C@@H](C)[C@@H](C)C(=O)O)c(=O)n2Cc2ccc(Cl)cc2)cc1Cl [Compound I-1442]
IC50 [3]: 8 nM

C[C@H](C(=O)O)[C@@H](C)n1c(=O)[nH]/c(=N\c2ccc(OCC3CC3)cc2)n(Cc2ccc(Cl)cc2)c1=O [Compound I-1344]
IC50 [3]: 33 nM

CNC(=O)Cn1c(=O)[nH]/c(=N\c2ccc(Oc3cnsn3)cc2)n(Cc2ccc(Cl)cc2)c1=O [Compound I-2676]
IC50 [1]: 13 nM

Cc1nc2ccc(/N=c3\[nH]c(=O)n(CC4COC(C)(C)OC4)c(=O)n3Cc3ccc(Cl)cc3)cc2s1 [Compound I-1542]
IC50 [1]: 4 nM

O=c1[nH]/c(=N\c2ccc(Oc3cncc(F)c3)cc2)n(Cc2ccc(Cl)cc2)c(=O)n1CCO [Compound I-2420]
IC50 [1]: 9 nM

COC(=O)[C@@H](C)Cn1c(=O)[nH]/c(=N\c2ccc(CCO)cc2)n(Cc2ccc(Cl)cc2)c1=O [Compound I-0657]
IC50 [3]: 471 nM

CCn1c(=O)[nH]/c(=N\c2ccc(Oc3cc(C)nn3C)cc2)n(Cc2ccc(Cl)cc2)c1=O [Compound I-2367]
IC50 [1]: 128 nM

CC(C)Oc1ccc(/N=c2\[nH]c(=O)n(CC3(CO)COC3)c(=O)n2Cc2ccc(Cl)cc2)cc1Cl [Compound I-1010]
IC50 [2]: 4 nM

CCn1c(=O)[nH]/c(=N\c2ccc(Oc3cccc(C(=O)OC)n3)cc2)n(Cc2ccc(Cl)cc2)c1=O [Compound I-2067]
IC50 [3]: 21 nM

CCn1c(=O)[nH]/c(=N\c2ccc(Oc3cncc(C(=O)O)c3)cc2)n(CC2CCC3(CC2)CC3)c1=O [Compound I-2175]
IC50 [3]: 13 nM

CCOC(=O)CCCn1c(=O)[nH]/c(=N\c2ccc3oc(C)cc3c2)n(Cc2ccc(C)cc2)c1=O [Compound I-0574]
IC50 [3]: 15 nM

Cc1ccc(Cn2c(=O)n(C[C@H](C)C(=O)O)c(=O)[nH]/c2=N\c2ccc(Oc3cc(C)nc(C)c3)cc2)cc1 [Compound I-1260]
IC50 [3]: 31 nM

CNC(=O)Cn1c(=O)[nH]/c(=N\c2ccc(Oc3ccc(C)nc3)cc2)n(Cc2ccc(Cl)cc2)c1=O [Compound I-1945]
IC50 [3]: 8 nM

COC(=O)[C@@H](C)Cn1c(=O)[nH]/c(=N\c2ccc3nc(C)ccc3c2)n(Cc2ccc(Cl)cc2)c1=O [Compound I-0790]
IC50 [3]: 13 nM

O=C(O)Cn1c(=O)[nH]/c(=N\c2ccc(Oc3ccon3)c(F)c2)n(Cc2ccc(Cl)cc2)c1=O [Compound I-2580]
IC50 [1]: 204 nM

CCn1c(=O)[nH]/c(=N\c2ccc(Oc3cccc(C#N)n3)cc2)n(Cc2ccc(F)cc2)c1=O [Compound I-2466]
IC50 [1]: 16 nM

Cc1ccc(Cn2c(=O)n(C[C@H](C)C(=O)O)c(=O)[nH]/c2=N\c2ccc(OC(F)(F)F)cc2)cc1 [Compound I-1002]
IC50 [2]: 298 nM

COC(=O)[C@@H](C)Cn1c(=O)[nH]/c(=N\c2ccc3oc(C)cc3c2)n(Cc2ccc(C)cc2)c1=O [Compound I-0671]
IC50 [3]: 15 nM

Cc1ccc(Cn2c(=O)n(CCC(=O)O)c(=O)[nH]/c2=N\c2ccc(O[C@H](C)C(F)(F)F)cc2)cc1 [Compound I-1031]
IC50 [2]: 64 nM

CCOC(=O)CCn1c(=O)[nH]/c(=N\c2ccc(OC3CCC3)c(Cl)c2)n(Cc2ccc(Cl)cc2)c1=O [Compound I-1330]
IC50 [3]: 9 nM

COC(=O)CCn1c(=O)[nH]/c(=N\c2ccc(Oc3cccc(C(N)=O)n3)cc2)n(Cc2ccc(C)cc2)c1=O [Compound I-2682]
IC50 [1]: 2 nM

COC(=O)c1cccc(Oc2ccc(/N=c3\[nH]c(=O)n(C)c(=O)n3Cc3ccc(Cl)cc3)cc2)c1 [Compound I-2059]
IC50 [3]: 56 nM

CC[C@H](C)COc1ccc(/N=c2\[nH]c(=O)n(CCC(=O)O)c(=O)n2Cc2ccc(C)cc2)cc1 [Compound I-1066]
IC50 [2]: 425 nM

COC(=O)[C@@H](C)[C@@H](C)n1c(=O)[nH]/c(=N\c2ccc(OC3CCC3)cc2)n(Cc2ccc(Cl)cc2)c1=O [Compound I-1452]
IC50 [3]: 14 nM

C[C@@H](Cn1c(=O)[nH]/c(=N\c2ccc(CC3CCCC3)cc2)n(Cc2ccc(Cl)cc2)c1=O)C(=O)O [Compound I-1101]
IC50 [2]: 53 nM

COC(=O)/C=C/c1cccc(Oc2ccc(/N=c3\[nH]c(=O)n(C)c(=O)n3Cc3ccc(C)cc3)cc2)c1 [Compound I-2328]
IC50 [1]: 34 nM

CCOC(=O)CCn1c(=O)[nH]/c(=N\c2ccc(CC(C)C)c(C)c2)n(Cc2ccc(Cl)cc2)c1=O [Compound I-1251]
IC50 [3]: 17 nM

Cc1[nH]c2ccc(/N=c3\[nH]c(=O)n(CCC(=O)O)c(=O)n3Cc3ccc(Cl)cc3)cc2c1C [Compound I-1950]
IC50 [3]: 29 nM

Cn1c(=O)[nH]/c(=N\c2ccc(Oc3nc(C(=O)O)cs3)cc2)n(Cc2ccc(Cl)cc2)c1=O [Compound I-2410]
IC50 [1]: 36 nM

CCn1c(=O)[nH]/c(=N\c2ccc(OCc3noc(C)n3)cc2)n(Cc2ccc(Cl)cc2)c1=O [Compound I-2200]
IC50 [3]: 545 nM

CCn1c(=O)[nH]/c(=N\c2ccc(OCCN(C)C(C)=O)cc2)n(Cc2ccc(Cl)cc2)c1=O [Compound I-2197]
IC50 [3]: 215 nM

C[C@@H](C(=O)O)[C@H](C)n1c(=O)[nH]/c(=N\c2ccc3ncsc3c2)n(Cc2ccc(Cl)cc2)c1=O [Compound I-1589]
IC50 [2]: 158 nM

CCc1nc2ccc(/N=c3\[nH]c(=O)n(CC4(C(=O)O)CC4)c(=O)n3Cc3ccc(Cl)cc3)cc2s1 [Compound I-1553]
IC50 [1]: 11 nM
